Measured values as given in US20250144187A1, “COMBINATION OF HYDROLASES AND ANTI-MICROORGANISM DRUGS AND USES THEREOF” (CENTRE FOR EYE AND VISION RESEARCH LIMITED, priority 2023, published 2025).

Legend:
[1] = test system: MRSA; test: HADA-based synthesis of nascent cell wall; set-up: species or system Staphylococcus aureus; settings: cefdinir alone or combination with lysozyme, 2 hours
Protocol: 8) Synthesis and digestion of cell wait. According to the reported method [Kuru E et al., ACS Chem Biol 14, 2745-2756 (2019)], over-night cultured MRSA was inoculated into LB medium and cultured at 37° C. with shaking at 250 rpm until when its OD600 reached 0.6. Then, these mid-log-phase MRSA was treated with cefdinir (0.5 μg/ml), lysozyme (0.5 mg/ml) alone or their combination. Those treated with mezlocillin (1.0 μg/ml) and without any treatment served as antibiotic-control and untreated group, respectively. Meanwhile, MRSA suspension in control group was further divided into two groups. i.e., control group and no drug group, Next, 10 μM HCC-Amino-D-alanine (HADA) was added into all samples except those in no drug group, in which HADA was replaced by PBS. After 2- or 4-hour incubation, all bacteria were collected by centrifugation at 3220 g for 10 minutes and then washed by cold PBS for 3 times to remove redundant HADA.

[2] = test system: ARPE-19 cells; format: cell-based; settings: human, 24 h
Protocol: 14) Toxicities analysis on lysozyme and cefdinir. Toxicities analysis of lysozyme and cefdinir were performed on ARPE-19 and 293T cells [Guo H et al., ACS Chem Biol 17, 2003-2009 (2022)]. Drugs at different concentrations were added into the plates, in which cells had 80% confluency. Those without any drug's treatment served as control group. Ater 24 hours culture at 37° C., survival cells were counted by using CCK-8 kit, 100% survival ratio (no toxicity) was defined as those had same number of survival cells in control group.

[3] = test system: MRSE; test: High-throughput screening of 1953 FDA-approved compounds with human lysozyme; format: cell-based, Staphylococcus epidermis; settings: compound 25 μM + 1 mg/ml lysozyme, 24-hour
Protocol: 1) High-throughput screening. According to standard screening method [Zhong. […] Commun. 11, 523 (2020)], 1953 FDA-approved compounds from our drugs library at a fixed concentrations of 25 μM were screened against methicillin-resistant Staphylococcus aureus (MRSA) and Staphylococcus epidermis (a coagulase negative Staphylococci, MRSE), in combination with human lysozyme. Specifically, these compounds were added into bacterial suspensions (1×10^5 CFU/ml, in LB medium) in the absence or presence of 1 mg/ml lysozyme. LB medium without bacteria served as background group. Then, the real-time growth curvet of MRSA were monitored per hour and for 24 hours. Absorbance at 600 am (OD600) of bacterial culture at the time point of 24-hour was also measured. The inhibition ratio (%) was calculated as (ODcontrol−ODsample)/(ODcontrol−ODbackground)×100%. […] Herein, the relative and apparent inhibition ratios indicated the combination effect and potential toxicity of compound, respectively. Synergy effect was defined as the relative inhibition ratio of ≥90%. All assays were performed in triplicate.

[4] = test system: MRSE; test: Time-killing curves, tedizolid phosphate/lysozyme; format: cell-based, Staphylococcus epidermis; settings: tedizolid phosphate + 0.5 mg/ml lysozyme, after 22 hours; dropping from the level of 10^12
[5] = test system: alkaline phosphatase extracted from MRSA; test: Enzyme activity of alkaline phosphatase (in vitro hydrolysis of tedizolid phosphate); format: biochemical, Staphylococcus aureus; settings: enzyme from MRSA of the combination therapy group, after 1 hour
Protocol: 14) Enzyme activity of alkaline phosphatase. All enzyme activities of alkaline phosphatase were analyzed according to the modified method as previously described [Zhao, X.-y et al., Nature 46, 86-90 (2009); Zhang, XC e al., Anal. Chem. 92, 5185-5190 (2020); Rosch, J. & Caparon, M. Science 304, 1513-1151 (2004); Wang. W et al., PLoS One 10, e012403512013); Ghosh, S. S et al., Circ. Res. 128, 1646-1659 (2021)]. Briefly, mid-log-phase MRSA or MRSE was treated with lysozyme, tedizolid phosphate or their combination at different concentrations. Those without any treatment served as untreated group. After incubation at 37° C. for 1 hour, all samples were collected, washed by distilled water and re-suspended in distilled water to collect bacterial suspension with an initial density of about 5.0×10^12 CFU/ml according to pre-experiment. Then, sonication lysis for 40 minutes at 4° C. and centrifugation at 18,000 g at 4° C. for 20 minutes were performed to collect these supernatants. Next, 20 μl of each supernatant was incubated with 4 μg of tedizolid phosphate. […] These slides were visualized under fluorescence microscopy and randomly selected bacteria were analyzed at ×1,500 magnification. To quantify the enzyme activity, similar protocol was performed on cell lysis supernatant instead of above-described bacterial suspension. Finally, absorption spectrums (300-800 nm) were collected and analyzed. […]

[6] = test system: ocular bacterial communities in tears; test: Microbiome assay (16S rRNA) in ocular infection model; format: in vivo, C57BL/6 mice; settings: combination therapy; infected untreated ~3%, healthy 0.052%
[7] = test system: MRSE; test: Mutation frequency and prevention concentration analysis, tedizolid phosphate/lysozyme

Row | Compound | reduction in HADA signal intensity from nascent cell wall [1] [%] | safe concentration without any effect on cell survival ratios [2] [µg/mL] | Growth inhibition ratio (mean ± SD, %) MRSE [3] [%] | bacterial load per ml culture [4] | tedizolid phosphate hydrolyzed [5] | proportion of Staphylococcus in tear bacterial communities [6] [%] | mutation frequencies ([7]; combination with lysozyme) | prevention concentrations of tedizolid phosphate ([7]; combination with lysozyme) [µg/mL] | mutation frequencies ([7]; without combination therapy) | prevention concentrations of tedizolid phosphate ([7]; without lysozyme) [µg/mL]
1 | C=CC1=C(C(=O)O)N2C(=O)[C@@H](NC(=O)/C(=N\O)c3csc(N)n3)[C@H]2SC1 [cefdinir, Cefdinir] | ~40 | < 64 | 20.31 ± 13.83 |  |  |  |  |  |  | 
2 | Cn1nnc(-c2ccc(-c3ccc(N4C[C@H](COP(=O)(O)O)OC4=O)cc3F)cn2)n1 [tedizolid phosphate, Tedizolid Phosphate] |  |  |  | 10^6 colony forming units (CFUs) | up to 65% | ~0.078 | 2×10^−9 | ≤ 1 | ≥ 5×10^−7 | > 50
